Results reported in patent US20180042234A1, “FUNGICIDAL PYRAZOLES” (E I DU PONT DE NEMOURS AND COMPANY, priority 2015, published 2018).
Marks after values point to notes of the source that are not given here.

Tests used:
Format in all cases: in vivo
[1] = tested on: Puccinia recondita f. sp. tritici; experiment: Test A: wheat leaf rust, preventive spray on wheat seedlings, visual disease rating
From the text: (§1) General protocol for preparing test suspensions for Tests A-E: the test compounds were first dissolved in acetone in an amount equal to 3% of the final volume and then suspended at the desired concentration (in ppm) in acetone and purified water (50/50 mix by volume) containing 250 ppm of the surfactant Trem® 014 (polyhydric alcohol esters). The resulting test suspensions were then used in Tests A-E. Spraying a 200 ppm test suspension to the point of run-off on the test plants was the equivalent of a rate of 800 g/ha.
The test suspension was sprayed to the point of run-off on wheat seedlings. The following day the seedlings were inoculated with a spore suspension of Puccinia recondita f. sp. tritici (the causal agent of wheat leaf rust) and incubated in a saturated atmosphere at 20° C. for 24 h, and then moved to a growth chamber at 20° C. for 7 days, after which time visual disease ratings were made.
(§2) Results for Tests A-E are given in Table A. In the Table, a rating of 100 indicates 100% disease control and a rating of 0 indicates no disease control (relative to the controls). A dash (-) indicates no test results. All results are for 200 ppm except where followed by an asterisk “*” which indicates a 250 ppm test suspension was used or a double asterisk “**” which indicates a 50 ppm test suspension was used.

Septoria tritici = experiment: Test B: wheat leaf blotch, preventive spray on wheat seedlings, visual disease rating
From the text: as §1
(§3) The test suspension was sprayed to the point of run-off on wheat seedlings. The following day the seedlings were inoculated with a spore suspension of Septoria tritici (the causal agent of wheat leaf blotch) and incubated in a saturated atmosphere at 24° C. for 48 h, and then moved to a growth chamber at 20° C. for 19 days, after which time visual disease ratings were made.
as §2

[2] = tested on: Blumeria graminis f sp. tritici; experiment: Test D: wheat powdery mildew, preventive spray on wheat seedlings, visual disease rating
From the text: as §1
The test suspension was sprayed to the point of run-off on wheat seedlings. The following day the seedlings were inoculated with a spore dust of Blumeria graminis f sp. tritici, (also known as Erysiphe graminis f sp. tritici, the causal agent of wheat powdery mildew) and incubated in a growth chamber at 20° C. for 8 days, after which time visual disease ratings were made.
as §2

Botrytis cinerea = experiment: Test C: tomato Botrytis, preventive spray on tomato seedlings, visual disease rating
From the text: as §1
as §3, with “tomato” for “wheat”, “Botrytis cinerea” for “Septoria tritici”, “tomato Botrytis)” for “wheat leaf blotch)”, “20°” for “24°”, “24°” for “20°”, “3” for “19”
as §2

[3] = 200 ppm test suspension, 100 = 100% disease control, 0 = no control

Row | SMILES | Test A disease control rating ([1]; 250 ppm test suspension (*)) | Test B disease control rating (Septoria tritici; 250 ppm test suspension (*)) | Test D disease control rating ([2]; 250 ppm test suspension (*)) | Test C disease control rating (Botrytis cinerea; 250 ppm test suspension (*)) | Test A disease control rating [1, 3] [%] | Test B disease control rating (Septoria tritici; 200 ppm test suspension) [%] | Test D disease control rating ([2]; 200 ppm test suspension) [%] | Test C disease control rating (Botrytis cinerea; 200 ppm test suspension) [%]
1 | C=C(C)c1c(C)nn(C)c1Oc1ccc(F)cc1Cl [Compound 39] | 15* % | 0* % | 13* % | 0* % |  |  |  | 
2 | Cc1nn(C)c(Oc2ccc(F)cc2Cl)c1C(C)O (centres unmarked) [Compound 41] | 0* % | 0* % | 46* % | 0* % |  |  |  | 
3 | Cc1nn(C)c(Nc2ccc(F)cc2)c1C1CCC(C)CC1 (centres unmarked) [Compound 64] | 55* % | 58* % | 96* % | 0* % |  |  |  | 
4 | CCCON=C(C)c1c(C)nn(C)c1Nc1ccc(F)cc1Cl [Compound 27] | 9* % | 17* % | 69* % | 0* % |  |  |  | 
5 | Cn1nc(Br)c(C2OCCCO2)c1C(O)c1ccc(F)cc1Cl (centres unmarked) [Compound 8] | 0* % | 5* % | 72* % | 0* % |  |  |  | 
6 | CCON=C(C)c1c(C)nn(C)c1Nc1ccc(F)cc1Cl [Compound 26] | 0* % | 33* % | 0* % | 0* % |  |  |  | 
7 | Cc1nn(C)c(Nc2ccc(F)cc2F)c1C1=CCOCC1 [Compound 58] | 0* % | 25* % | 0* % | 0* % |  |  |  | 
8 | C=Cc1c(C)nn(C)c1Oc1ccc(F)cc1Cl [Compound 35] | 8* % | 0* % | 26* % | 0* % |  |  |  | 
9 | CCON=C(C)c1c(C)nn(C)c1N(CC)c1ccc(F)cc1Cl [Compound 29] | 55* % | 14* % | 0* % | 0* % |  |  |  | 
10 | CC=C(C)c1c(C)nn(C)c1Nc1c(F)cc(Cl)cc1F [Compound 24, N-(4-chloro-2,6-difluorophenyl)-1,3-dimethyl-4-(1-methyl-1-propen-1-yl)-1H-pyrazol-5-amine] |  |  |  |  | 94 | 96 | 100 | 85
11 | Cn1nc(Br)c(C2OCCCO2)c1C(O)c1ccc(F)cc1F (centres unmarked) [Compound 10] | 0* % | 0* % | 90* % | 0* % |  |  |  | 
12 | Cc1nn(C)c(Oc2ccc(F)cc2Cl)c1C1OCCCO1 [Compound 37] | 52* % | 5* % | 63* % | 0* % |  |  |  | 
13 | Cc1nn(C)c(Oc2ccc(F)cc2Cl)c1C1OCC(C)(C)CO1 [Compound 38] | 52* % | 93* % | 94* % | 0* % |  |  |  | 
14 | CON=C(C)c1c(C)nn(C)c1Nc1ccc(F)cc1Cl [Compound 30] | 80* % | 14* % | 0* % | 0* % |  |  |  | 
15 | Cc1nn(C)c(Nc2ccc(F)cc2Cl)c1C1=CCOCC1 [Compound 21] | 0* % | 17* % | 13* % | 42* % |  |  |  | 
16 | CCC(C)c1c(C)nn(C)c1Nc1c(F)cc(Cl)cc1F (centres unmarked) [Compound 23, N-(4-chloro-2,6-difluorophenyl)-1,3-dimethyl-4-(1-methylpropyl)-1H-pyrazol-5-amine] |  |  |  |  | 68 |  | 95 | 98
17 | Cc1nn(C)c(Nc2ccc(F)cc2Cl)c1C1CCC(C)CC1 (centres unmarked) [Compound 61] | 0* % | 53* % | 97* % | 0* % |  |  |  | 
18 | Cc1nn(C)c(Nc2ccc(F)cc2Cl)c1C1CCC(C#N)CC1 (centres unmarked) [Compound 65] | 55* % | 54* % | 13* % | 0* % |  |  |  | 
